Test results taken from the NIST ThermoML archive (doi:10.1016/j.tca.2015.06.017).

Assay: xn = mol fraction of the nth substance listed
Conditions: Liquid, Vibrating tube method

CCCCCl [1-chlorobutane] + CCCCCCC
mass density [kg/m3]
Conditions	313.15 K	323.15 K
100 kPa, x2 = 0.0508	–	838.56
100 kPa, x2 = 0.0994	–	825.81
100 kPa, x2 = 0.2013	–	800.61
100 kPa, x2 = 0.3015	–	777.72
100 kPa, x2 = 0.4008	–	756.76
100 kPa, x2 = 0.5026	–	736.89
100 kPa, x2 = 0.6012	–	719.03
100 kPa, x2 = 0.7003	–	702.32
100 kPa, x2 = 0.7995	–	686.71
100 kPa, x2 = 0.9011	–	671.83
100 kPa, x2 = 0.9494	–	665.13
2000 kPa, x2 = 0.0508	–	840.94
2000 kPa, x2 = 0.0994	–	828.16
2000 kPa, x2 = 0.2013	–	802.98
2000 kPa, x2 = 0.3015	–	780.1
2000 kPa, x2 = 0.4008	–	759.09
2000 kPa, x2 = 0.5026	–	739.17
2000 kPa, x2 = 0.6012	–	721.27
2000 kPa, x2 = 0.7003	–	704.55
2000 kPa, x2 = 0.7995	–	688.99
2000 kPa, x2 = 0.9011	–	674.07
2000 kPa, x2 = 0.9494	–	667.35
5000 kPa, x2 = 0.0508	–	844.77
5000 kPa, x2 = 0.0994	–	831.99
5000 kPa, x2 = 0.2013	–	806.76
5000 kPa, x2 = 0.3015	–	783.86
5000 kPa, x2 = 0.4008	–	762.86
5000 kPa, x2 = 0.5026	–	742.92
5000 kPa, x2 = 0.6012	–	724.95
5000 kPa, x2 = 0.7003	–	708.22
5000 kPa, x2 = 0.7995	–	692.58
5000 kPa, x2 = 0.9011	–	677.65
5000 kPa, x2 = 0.9494	–	670.89
7000 kPa, x2 = 0.0508	–	847.24
7000 kPa, x2 = 0.0994	–	834.44
7000 kPa, x2 = 0.2013	–	809.21
7000 kPa, x2 = 0.3015	–	786.24
7000 kPa, x2 = 0.4008	–	765.22
7000 kPa, x2 = 0.5026	–	745.31
7000 kPa, x2 = 0.6012	–	727.32
7000 kPa, x2 = 0.7003	–	710.53
7000 kPa, x2 = 0.7995	–	694.9
7000 kPa, x2 = 0.9011	–	679.93
7000 kPa, x2 = 0.9494	–	673.17
10000 kPa, x2 = 0.0508	–	850.72
10000 kPa, x2 = 0.0994	–	837.9
10000 kPa, x2 = 0.2013	–	812.61
10000 kPa, x2 = 0.3015	–	789.63
10000 kPa, x2 = 0.4008	–	768.57
10000 kPa, x2 = 0.5026	–	748.59
10000 kPa, x2 = 0.6012	–	730.62
10000 kPa, x2 = 0.7003	–	713.78
10000 kPa, x2 = 0.7995	–	698.05
10000 kPa, x2 = 0.9011	–	683.06
10000 kPa, x2 = 0.9494	–	676.28
20000 kPa, x2 = 0.0508	–	861.47
20000 kPa, x2 = 0.0994	–	848.64
20000 kPa, x2 = 0.2013	–	823.24
20000 kPa, x2 = 0.3015	–	800.16
20000 kPa, x2 = 0.4008	–	779.03
20000 kPa, x2 = 0.5026	767.37	758.92
20000 kPa, x2 = 0.6012	749.02	740.82
20000 kPa, x2 = 0.7003	731.86	723.85
20000 kPa, x2 = 0.7995	715.81	708.08
20000 kPa, x2 = 0.9011	700.5	692.95
20000 kPa, x2 = 0.9494	693.56	686.11
30000 kPa, x2 = 0.0508	880.41	871.14
30000 kPa, x2 = 0.0994	867.36	858.24
30000 kPa, x2 = 0.2013	841.53	832.76
30000 kPa, x2 = 0.3015	818.07	809.58
30000 kPa, x2 = 0.4008	796.54	788.23
30000 kPa, x2 = 0.5026	776	767.99
30000 kPa, x2 = 0.6012	757.6	749.78
30000 kPa, x2 = 0.7003	740.3	732.75
30000 kPa, x2 = 0.7995	724.2	716.78
30000 kPa, x2 = 0.9011	708.75	701.56
30000 kPa, x2 = 0.9494	701.75	694.65
40000 kPa, x2 = 0.0508	888.86	880.1
40000 kPa, x2 = 0.0994	875.75	867.14
40000 kPa, x2 = 0.2013	849.87	841.52
40000 kPa, x2 = 0.3015	826.26	818.18
40000 kPa, x2 = 0.4008	804.63	796.79
40000 kPa, x2 = 0.5026	783.99	776.38
40000 kPa, x2 = 0.6012	765.46	758.03
40000 kPa, x2 = 0.7003	748.11	740.88
40000 kPa, x2 = 0.7995	731.87	724.82
40000 kPa, x2 = 0.9011	716.29	709.43
40000 kPa, x2 = 0.9494	709.25	702.46
50000 kPa, x2 = 0.0508	896.61	888.16
50000 kPa, x2 = 0.0994	883.49	875.18
50000 kPa, x2 = 0.2013	857.51	849.47
50000 kPa, x2 = 0.3015	833.86	826.06
50000 kPa, x2 = 0.4008	812.1	804.52
50000 kPa, x2 = 0.5026	791.37	784.01
50000 kPa, x2 = 0.6012	772.75	765.61
50000 kPa, x2 = 0.7003	755.31	748.29
50000 kPa, x2 = 0.7995	738.98	732.14
50000 kPa, x2 = 0.9011	723.31	716.65
50000 kPa, x2 = 0.9494	716.21	709.64
60000 kPa, x2 = 0.0508	903.88	895.85
60000 kPa, x2 = 0.0994	890.72	882.82
60000 kPa, x2 = 0.2013	864.67	856.99
60000 kPa, x2 = 0.3015	840.92	833.5
60000 kPa, x2 = 0.4008	819.09	811.83
60000 kPa, x2 = 0.5026	798.31	791.24
60000 kPa, x2 = 0.6012	779.58	772.72
60000 kPa, x2 = 0.7003	762	755.34
60000 kPa, x2 = 0.7995	745.59	739.04
60000 kPa, x2 = 0.9011	729.82	723.43
60000 kPa, x2 = 0.9494	722.67	716.36
65000 kPa, x2 = 0.0508	907.45	899.38
65000 kPa, x2 = 0.0994	894.26	886.34
65000 kPa, x2 = 0.2013	868.13	860.51
65000 kPa, x2 = 0.3015	844.29	836.96
65000 kPa, x2 = 0.4008	822.37	815.25
65000 kPa, x2 = 0.5026	801.56	794.63
65000 kPa, x2 = 0.6012	782.77	776.07
65000 kPa, x2 = 0.7003	765.13	758.61
65000 kPa, x2 = 0.7995	748.66	742.31
65000 kPa, x2 = 0.9011	732.82	726.65
65000 kPa, x2 = 0.9494	725.63	719.56
